Assay results from patent US6737383B1, “Herbicidal oxadiazolidines” (priority 1999, dated 2004).

Columns and labels:
rape = test: Test B pre/postemergence rape; assay type: in vivo, Brassica napus
Summary of the method: (§1)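 Response is a visual 0-to-10 score relative to untreated plants, where 0 means no effect and 10 means complete control, taken twelve to sixteen days after application. Treatments went onto soil at planting and onto foliage of 1- to 4-leaf plants, using a surfactant-containing non-phytotoxic solvent.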

bedstraw = test: Test B pre/postemergence bedstraw; assay type: in vivo, Galium aparine; settings: Postemergence
Summary of the method: as §1

giant foxtail = test: Test B pre/postemergence giant foxtail; assay type: in vivo, Setaria faberii
Summary of the method: as §1

morningglory = test: Test B pre/postemergence morningglory; assay type: in vivo, Ipomoea hederacea
Summary of the method: as §1

smallflower flatsedge = test: Test B flood test smallflower flatsedge; assay type: in vivo, Cyperus difformis
Summary of the method: (§2)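 Each value is a visual injury score relative to controls, with 10 meaning complete control and 0 no effect. Evaluation took place twelve to sixteen days after the 2-leaf-stage plants were treated and kept in the greenhouse.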

surinam grass = test: Test B pre/postemergence surinam grass; assay type: in vivo, Brachiaria decumbens
Summary of the method: as §1

blackgrass = test: Test B pre/postemergence blackgrass; assay type: in vivo, Alopecurus myosuroides
Summary of the method: as §1

purple nutsedge = test: Test B pre/postemergence purple nutsedge; assay type: in vivo, Cyperus rotundus
Summary of the method: as §1

crabgrass = test: Test B pre/postemergence crabgrass; assay type: in vivo, Digitaria sanguinalis
Summary of the method: as §1

wild oat = test: Test B pre/postemergence wild oat; assay type: in vivo, Avena fatua
Summary of the method: as §1

velvetleaf = test: Test B pre/postemergence velvetleaf; assay type: in vivo, Abutilon theophrasti
Summary of the method: as §1

duck salad = test: Test B flood test duck salad; assay type: in vivo, Heteranthera limosa
Summary of the method: as §2

cocklebur = test: Test B pre/postemergence cocklebur; assay type: in vivo, Xanthium strumarium
Summary of the method: as §1

rice = test: Test B flood test rice; assay type: in vivo, Oryza sativa
Summary of the method: as §2

bamyardgrass = test: Test B flood test barnyardgrass; assay type: in vivo, Echinochloa crus-galli
Summary of the method: as §2

corn = test: Test B pre/postemergence corn; assay type: in vivo, Zea mays
Summary of the method: as §1

sugar beet = test: Test B pre/postemergence sugar beet; assay type: in vivo, Beta vulgaris
Summary of the method: as §1

soybean = test: Test B pre/postemergence soybean; assay type: in vivo, Glycine max
Summary of the method: as §1

pigweed = test: Test B pre/postemergence pigweed; assay type: in vivo, Amaranthus retroflexus
Summary of the method: as §1

wheat = test: Test B pre/postemergence wheat; assay type: in vivo, Triticum aestivum
Summary of the method: as §1

[1] = Postemergence, Rate 62 g/ha, scale 0 to 10, 0 is no effect, 10 is complete control
[2] = Postemergence, Rate 125 g/ha, scale of 0 to 10 where 0 is no effect and 10 is complete control
[3] = Postemergence, Rate 250 g/ha, scale of 0 to 10, 0 is no effect, 10 is complete control
[4] = Postemergence, Rate 500 g/ha, scale of 0 to 10 where 0 is no effect and 10 is complete control
[5] = Preemergence, Rate 62 g/ha, scale 0 to 10 (0 no effect, 10 complete control)
[6] = Preemergence, Rate 125 g/ha, scale of 0 to 10 where 0 is no effect and 10 is complete control
[7] = Preemergence, Rate 500 g/ha, scale of 0 to 10 where 0 is no effect and 10 is complete control
[8] = Rate 62 g/ha, flood test species, Pre-emergence, visual evaluation after twelve to sixteen days
[9] = Rate 125 g/ha, under heading Pre-emergence, flood test species, visual evaluation after twelve to sixteen days
[10] = Rate 250 g/ha, Pre-emergence (flood test species), scale 0 to 10, 0 is no effect, 10 is complete control
[11] = Rate 500 g/ha, Pre-emergence section of Table B, 0 to 10 scale (0 no effect, 10 complete control)

C=C(C)Cn1c(=O)on(C(=O)N(c2ccccc2)C(C)C)c1=O [Compound 607]
Plant response rating, Rape (rape; [1]): 0 | Plant response rating, Rape (rape; [2]): 0 | Rape plant response rating (rape; [3]): 0 | Plant response rating, Rape (rape; [4]): 0 | Rape plant response rating (rape; [5]): 0 | Rape plant response rating (rape; [6]): 6 | Plant response rating, Rape (rape; [7]): 7 | Plant response rating, Bedstraw (bedstraw; Rate 62 g/ha, scale 0 to 10, 0 is no effect, 10 is complete control): 0 | Plant response rating, Bedstraw (bedstraw; Rate 125 g/ha, scale of 0 to 10 where 0 is no effect and 10 is complete control): 0 | Plant response rating, Giant foxtail (giant foxtail; [1]): 6 | Plant response rating, Giant foxtail (giant foxtail; [2]): 6 | Giant foxtail plant response rating (giant foxtail; [3]): 7 | Plant response rating, Giant foxtail (giant foxtail; [4]): 9 | Giant foxtail plant response rating (giant foxtail; [5]): 9 | Giant foxtail plant response rating (giant foxtail; [6]): 10 | Plant response rating, Giant foxtail (giant foxtail; [7]): 10 | Plant response rating, Morningglory (morningglory; [1]): 6 | Plant response rating, Morningglory (morningglory; [2]): 8 | Morningglory plant response rating (morningglory; [3]): 8 | Plant response rating, Morningglory (morningglory; [4]): 10 | Morningglory plant response rating (morningglory; [5]): 0 | Morningglory plant response rating (morningglory; [6]): 0 | Plant response rating, Morningglory (morningglory; [7]): 0 | Plant response rating, S. Flatsedge (0 to 10 scale, 0 is no effect, 10 is complete control) (smallflower flatsedge; [8]): 0 | S. Flatsedge plant response rating (0 to 10 scale, 0 is no effect, 10 is complete control) (smallflower flatsedge; [9]): 0 | S. Flatsedge plant response rating (smallflower flatsedge; [10]): 0 | S. Flatsedge plant response rating (smallflower flatsedge; [11]): 0 | Plant response rating, B. signalgrass (surinam grass; [1]): 0 | Plant response rating, B. signalgrass (surinam grass; [2]): 0 | B. signalgrass plant response rating (surinam grass; [3]): 4 | Plant response rating, B. signalgrass (surinam grass; [4]): 7 | B. signalgrass plant response rating (surinam grass; [5]): 4 | B. signalgrass plant response rating (surinam grass; [6]): 7 | B. signalgrass plant response rating (0 to 10 scale, 0 is no effect, 10 is complete control) (surinam grass; Preemergence, Rate 250 g/ha): 8 | B. signalgrass plant response rating (surinam grass; [7]): 8 | Plant response rating, Blackgrass (blackgrass; [1]): 0 | Plant response rating, Blackgrass (blackgrass; [2]): 4 | Blackgrass plant response rating (blackgrass; [3]): 6 | Plant response rating, Blackgrass (blackgrass; [4]): 7 | Blackgrass plant response rating (blackgrass; [5]): 4 | Blackgrass plant response rating (blackgrass; [6]): 7 | Blackgrass plant response rating (0 to 10 scale) (blackgrass; Preemergence, Rate 250 g/ha): 8 | Blackgrass plant response rating (blackgrass; [7]): 9 | Plant response rating, Nutsedge (purple nutsedge; [1]): 0 | Plant response rating, Nutsedge (purple nutsedge; [2]): 0 | Nutsedge plant response rating (purple nutsedge; [3]): 0 | Plant response rating, Nutsedge (purple nutsedge; [4]): 7 | Nutsedge plant response rating (purple nutsedge; [6]): 0 | Plant response rating, Nutsedge (purple nutsedge; [7]): 0 | Plant response rating, Crabgrass (crabgrass; [1]): 5 | Crabgrass plant response rating (crabgrass; [3]): 8 | Plant response rating, Crabgrass (crabgrass; [4]): 9 | Crabgrass plant response rating (crabgrass; [5]): 7 | Crabgrass plant response rating (crabgrass; [6]): 8 | Plant response rating, Crabgrass (crabgrass; [7]): 9 | Plant response rating, Wild oats (wild oat; [1]): 0 | Plant response rating, Wild oats (wild oat; [2]): 0 | Wild oats plant response rating (wild oat; [3]): 0 | Plant response rating, Wild oats (wild oat; [4]): 4 | Wild oats plant response rating (wild oat; [5]): 0 | Wild oats plant response rating (wild oat; [6]): 2 | Plant response rating, Wild oats (wild oat; [7]): 6 | Plant response rating, Velvetleaf (velvetleaf; [1]): 0 | Plant response rating, Velvetleaf (velvetleaf; [2]): 0 | Velvetleaf plant response rating (velvetleaf; [3]): 3 | Plant response rating, Velvetleaf (velvetleaf; [4]): 5 | Velvetleaf plant response rating (velvetleaf; [5]): 0 | Velvetleaf plant response rating (velvetleaf; [6]): 3 | Plant response rating, Velvetleaf (velvetleaf; [7]): 8 | Plant response rating, Ducksalad (0 to 10 scale, 0 is no effect, 10 is complete control) (duck salad; [8]): 0 | Ducksalad plant response rating (0 to 10 scale, 0 is no effect, 10 is complete control) (duck salad; [9]): 0 | Ducksalad plant response rating (duck salad; [10]): 0 | Ducksalad plant response rating (duck salad; [11]): 0 | Plant response rating, Cocklebur (cocklebur; [1]): 0 | Plant response rating, Cocklebur (cocklebur; [2]): 0 | Cocklebur plant response rating (cocklebur; [3]): 0 | Plant response rating, Cocklebur (cocklebur; [4]): 0 | Cocklebur plant response rating (cocklebur; [5]): 0 | Cocklebur plant response rating (cocklebur; [6]): 0 | Cocklebur plant response rating (0 to 10 scale) (cocklebur; Preemergence, Rate 250 g/ha): 0 | Plant response rating, Cocklebur (cocklebur; [7]): 0 | Plant response rating, Rice (0 to 10 scale, 0 is no effect, 10 is complete control) (rice; [8]): 0 | Rice plant response rating (0 to 10 scale, 0 is no effect, 10 is complete control) (rice; [9]): 0 | Rice plant response rating (rice; [10]): 0 | Rice plant response rating (rice; [11]): 0 | Plant response rating, Barnyardgrass (0 to 10 scale, 0 is no effect, 10 is complete control) (bamyardgrass; [8]): 0 | Barnyardgrass plant response rating (0 to 10 scale, 0 is no effect, 10 is complete control) (bamyardgrass; [9]): 0 | Barnyardgrass plant response rating (bamyardgrass; [10]): 0 | Barnyardgrass plant response rating (bamyardgrass; [11]): 0 | Plant response rating, Corn (corn; [1]): 0 | Plant response rating, Corn (corn; [2]): 0 | Corn plant response rating (corn; [3]): 0 | Plant response rating, Corn (corn; [4]): 2 | Corn plant response rating (corn; [5]): 0 | Corn plant response rating (corn; [6]): 0 | Corn plant response rating (0 to 10 scale) (corn; Preemergence, Rate 250 g/ha): 0 | Plant response rating, Corn (corn; [7]): 6 | Plant response rating, Sugarbeets (sugar beet; [1]): 0 | Plant response rating, Sugarbeets (sugar beet; [2]): 0 | Sugarbeets plant response rating (sugar beet; [3]): 0 | Plant response rating, Sugarbeets (sugar beet; [4]): 0 | Sugarbeets plant response rating (sugar beet; [5]): 0 | Sugarbeets plant response rating (sugar beet; [6]): 0 | Plant response rating, Sugarbeets (sugar beet; [7]): 5 | Plant response rating, Soybean (soybean; [1]): 3 | Plant response rating, Soybean (soybean; [2]): 4 | Soybean plant response rating (soybean; [3]): 6 | Soybean plant response rating (soybean; [5]): 0 | Soybean plant response rating (soybean; [6]): 0 | Plant response rating, Soybean (soybean; [7]): 4 | Plant response rating, Redroot pigweed (pigweed; [1]): 0 | Plant response rating, Redroot pigweed (pigweed; [2]): 0 | Redroot pigweed plant response rating (pigweed; [3]): 0 | Plant response rating, Redroot pigweed (pigweed; [4]): 5 | Redroot pigweed plant response rating (pigweed; [5]): 4 | Redroot pigweed plant response rating (pigweed; [6]): 7 | Plant response rating, Redroot pigweed (pigweed; [7]): 10 | Plant response rating, Wheat (wheat; [1]): 0 | Plant response rating, Wheat (wheat; [2]): 0 | Wheat plant response rating (wheat; [3]): 2 | Plant response rating, Wheat (wheat; [4]): 4 | Wheat plant response rating (wheat; [5]): 0 | Wheat plant response rating (wheat; [6]): 0 | Plant response rating, Wheat (wheat; [7]): 3
